“Also recorded” adds a separate entry of the source.
How the values were obtained:
Type in all cases: cell-based
estrogen receptor ERα = biological target: T1, estrogen receptor ERα (Homo sapiens, UniProt P03372); test: human ERα reporter assay (ERE-luc, Indigo Bioscience #IB00421-48P); settings: for increase of the activity of the estrogen receptor ERα: Test Example 1, 10 μg/mL for 24 hours, FIG. 11, FIG. 14; for activity of ERα: Test Example 3, same manner as Test Example 1, FIG. 16
T1 sequence (P03372 1-595): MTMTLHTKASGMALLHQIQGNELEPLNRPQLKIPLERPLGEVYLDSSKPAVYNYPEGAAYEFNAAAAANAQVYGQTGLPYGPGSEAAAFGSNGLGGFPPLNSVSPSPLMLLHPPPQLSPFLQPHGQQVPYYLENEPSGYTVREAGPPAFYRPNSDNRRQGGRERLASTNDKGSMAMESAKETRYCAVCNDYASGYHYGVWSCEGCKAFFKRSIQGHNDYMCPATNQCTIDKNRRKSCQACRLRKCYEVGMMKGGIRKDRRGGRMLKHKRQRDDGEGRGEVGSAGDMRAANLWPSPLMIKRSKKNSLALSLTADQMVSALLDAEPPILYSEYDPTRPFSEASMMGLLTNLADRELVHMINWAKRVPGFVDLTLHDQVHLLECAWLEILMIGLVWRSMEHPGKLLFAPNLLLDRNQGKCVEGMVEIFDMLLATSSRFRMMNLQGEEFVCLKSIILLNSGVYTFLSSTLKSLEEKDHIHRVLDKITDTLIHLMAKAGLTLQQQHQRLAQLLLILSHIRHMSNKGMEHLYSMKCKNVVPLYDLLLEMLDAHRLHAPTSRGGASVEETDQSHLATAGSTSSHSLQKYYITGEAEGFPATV
Experimental: (§1) After treating each of the novel ginsenoside GS #10 according to an exemplary embodiment of the present disclosure and other ginsenosides GS #01 to GS #06 isolated from the ginseng seed extract with a human ERα/β reporter assay panel (#IB00421-48P; Indigo Bioscience) at a concentration of 10 μg/mL for 24 hours, the increase of the activity of the estrogen receptors ERα and ERβ was analyzed. The #IB00421-48P kit comprises cells in which ERα and ERβ are overexpressed, respectively, and comprises the ERE-luc reporter gene. If the activity of the ER is increased by treating with the example or a comparative example, ERα and ERβ bind to ERE, thereby inducing the expression of luciferase. Therefore, the activity of ERα and ERβ can be measured by measuring the light intensity of the cells. As the comparative example, a methanol extract of ginseng seed (seeds of Panax ginseng) used for the isolation of the ginsenosides in Example 1 was used.
(§2) It is reported that, although the increased activity of the estrogen receptors ERα and ERβ can lead to alleviation of menopausal symptoms, ERs are overexpressed in more than 70% of breast cancer cells, mainly due to increased ERα (ESR1) (see Deroo B J et al., J Clin Invest 116:561 (2006)).
(§3) The effect of preventing or improving menopausal symptoms of the novel ginsenoside […] according to an exemplary embodiment of the present disclosure was compared with that of ginsenosides Rg1, Rg3 and Rb1 (purchased from Sigma), which are red ginseng marker compounds, as comparative examples. Ginsenoside Rg3 has the following chemical structure. The experiment was performed in the same manner as in Test Example 1.

[1] = system: MCF-7 breast cancer cells; test: growth of MCF-7 breast cancer cells (cell counting); settings: 10 μg/mL for 48 hours; number of cells counted; FIG. 15
SH-SY5Y cells = test: cytotoxicity, cell counting kit (CCK-8); settings: 0.1, 1, 5, 10, 20 and 50 μM, FIG. 18
Experimental: Cell growth in the presence of the novel ginsenoside GS #10 according to an exemplary embodiment of the present disclosure was evaluated using a cell counting kit (CCK-8) in order to exclude the possibility that the ginsenoside may affect the effect of preventing or improving menopausal symptoms through cytotoxic activity. The experimental method is as follows.
10 μL of a CCK-8 reagent was added to SH-SY5Y cells (Dojindo, Md., USA) in a 96-well plate and left at 37° C. for 2 hours. Then, absorbance was measured at 450 nm. Cell viability was represented as the percentage (%) of the absolute optical density of each sample relative to an untreated sample. The concentration of the novel ginsenoside GS #10 according to an exemplary embodiment of the present disclosure in the medium in which the cells were cultured was 0.1, 1, 5, 10, 20 and 50 μM, respectively.

estrogen receptor ERβ = estrogen receptor ERβ (Homo sapiens, UniProt Q92731); test: human ERβ reporter assay (ERE-luc, Indigo Bioscience #IB00421-48P); settings: for activity of ERβ: same manner as Test Example 1
Sequence of estrogen receptor ERβ (Q92731 whole entry): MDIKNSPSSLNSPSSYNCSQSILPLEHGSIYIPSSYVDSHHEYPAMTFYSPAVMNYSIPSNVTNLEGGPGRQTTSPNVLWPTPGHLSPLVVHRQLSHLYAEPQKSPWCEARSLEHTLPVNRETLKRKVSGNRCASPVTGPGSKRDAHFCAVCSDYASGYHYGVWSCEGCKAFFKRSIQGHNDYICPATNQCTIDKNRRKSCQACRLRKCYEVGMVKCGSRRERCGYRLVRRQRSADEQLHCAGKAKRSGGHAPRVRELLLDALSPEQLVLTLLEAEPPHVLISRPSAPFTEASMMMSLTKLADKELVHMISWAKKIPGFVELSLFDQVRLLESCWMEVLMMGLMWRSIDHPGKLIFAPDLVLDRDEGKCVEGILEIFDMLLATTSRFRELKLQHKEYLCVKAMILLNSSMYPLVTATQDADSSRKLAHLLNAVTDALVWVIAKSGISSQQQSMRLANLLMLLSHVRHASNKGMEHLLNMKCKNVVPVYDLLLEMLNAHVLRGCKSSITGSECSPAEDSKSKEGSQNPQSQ
Experimental: as §1, §2, §3

Compound | increase of the activity of the estrogen receptor ERα (estrogen receptor ERα) | activity of ERα (estrogen receptor ERα) | growth of MCF-7 breast cancer cells (side effect of promoting cancer cell growth) [1] | activity of ERβ (estrogen receptor ERβ; Test Example 3, FIG. 17) | also measured
CC(C)=CCC[C@](C)(O[C@@H]1O[C@H](CO)[C@@H](O)[C@H](O)[C@H]1O)[C@H]1CC[C@]2(C)[C@@H]1[C@H](O)C[C@@H]1[C@@]3(C)CC[C@H](O)C(C)(C)[C@@H]3[C@@H](O[C@@H]3O[C@H](CO)[C@@H](O)[C@H](O)[C@H]3O[C@@H]3O[C@@H](C)[C@H](O)[C@@H](O)[C@H]3O)C[C@]12C [GS #03, ginsenoside Re] | slightly increased the activity of ERα |  |  |  | 
CC(C)=CCC[C@](C)(O[C@@H]1O[C@H](CO[C@@H]2O[C@H](CO)[C@@H](O)[C@H](O)[C@H]2O)[C@@H](O)[C@H](O)[C@H]1O)[C@H]1CC[C@]2(C)[C@@H]1[C@H](O)C[C@@H]1[C@@]3(C)CC[C@H](O[C@@H]4O[C@H](CO)[C@@H](O)[C@H](O)[C@H]4O[C@@H]4O[C@H](CO)[C@@H](O)[C@H](O)[C@H]4O)C(C)(C)[C@@H]3CC[C@]12C [GS #05, ginsenoside Rb1] | slightly increased the activity of ERα | activated the estrogen receptors to some extent |  |  | 
C[C@]12CC[C@@H]3c4ccc(O)cc4CC[C@H]3[C@@H]1CC[C@@H]2O [17β-estradiol, 17β-Estradiol, reference compound] |  |  | promoted the growth of the breast cancer cells |  | 
CC1(C)C(=O)CC[C@@]2(C)C1[C@@H](O[C@H]1OC(CO)[C@H](O)C(O)C1O[C@H]1OC(CO)[C@H](O)C(O)C1O)C[C@]1(C)C2C[C@@H](O)C2C([C@]3(C)CC[C@H](C(C)(C)O)O3)CC[C@]21C (stereo partly drawn) [GS #10, (20S,24R)-6-O-β-D-glucopyranosyl(1→2)-β-D-glucopyranoside-dammar-3-one-20,24-epoxy-6a,12b,25-triol] | slightly increased the activity of ERα; also recorded: had an effect of increasing the activity | not higher than Rg1 and Rb1 | did not show such a side effect | 136% | cytotoxicity (cell viability) (SH-SY5Y cells): did not exhibit cytotoxicity up to 50 μM; increase of the activity of the estrogen receptor ERβ (estrogen receptor ERβ; Test Example 1, 10 μg/mL for 24 hours, FIG. 12, FIG. 14): activated ERβ; also recorded: had an effect of increasing the activity; activity ratio of ERβ to ERα compared with red ginseng marker compounds (estrogen receptor ERβ; Test Example 3, FIG. 16 and FIG. 17): higher than the ginsenosides Rb1, Rg1 and Rg3; activity of ERβ as compared to the ginsenosides Rg1 and Rb1 (estrogen receptor ERβ; Test Example 3, FIG. 17): at least 3 times
CC(C)=CCC[C@](C)(O)[C@H]1CC[C@]2(C)[C@@H]1[C@H](O)C[C@@H]1[C@@]3(C)CC[C@H](O[C@@H]4O[C@H](CO)[C@@H](O)[C@H](O)[C@H]4O[C@@H]4O[C@H](CO)[C@@H](O)[C@H](O)[C@H]4O)C(C)(C)[C@@H]3CC[C@]12C [Rg3, Ginsenoside Rg3, reference compound] |  | activated the estrogen receptors to some extent |  | activated the estrogen receptors to some extent | 
CC(C)=CCC[C@](C)(O[C@@H]1O[C@H](CO)[C@@H](O)[C@H](O)[C@H]1O)[C@H]1CC[C@]2(C)[C@@H]1[C@H](O)C[C@@H]1[C@@]3(C)CC[C@H](O)C(C)(C)[C@@H]3[C@@H](O[C@@H]3O[C@H](CO)[C@@H](O)[C@H](O)[C@H]3O)C[C@]12C [GS #01, ginsenoside Rg1] |  | activated the estrogen receptors to some extent |  |  | 
